One block for each compound: values may come before it.
Tests used:
[1] = biological target: PI3K γ (Homo sapiens (Human), UniProt P48736); test: Radioisotope filter binding assay; assay type: biochemical; details: read-out: IC50 Activity Levels Against Various PI3K and mTor Kinases: PI3K γ
Protocol: (§1) 3. Radioisotope Filter Binding Assay:
(§2) In this assay format, it directly detects the true product without the use of modified substrates or coupling enzymes (Uitdehaag, J. C., et al. Br. J. Pharmacol. 2012, 166, 858-876; Hastie, C. J., et al. Nat. Protoc. 2006, 1, 968-971) according to equation 1. Substrate+[γ−^33P]−ATP→^33P-Substrate+ADP eq 1
(§3) The protocol calls for test compound of the invention to be incubated with kinase, substrate, cofactors, and radio-isotope-labeled ATP (^33P-gamma-ATP). The reaction mixtures are then spotted onto filter papers which bind the radioisotope labeled catalytic product. Unreacted phosphate is removed via washing. The reagents used include base reaction buffer; 20 mM Hepes (pH 7.5), 10 mM MgCl2, 1 mM EGTA, 0.02% Brij35, 0.02 mg/ml BSA, 0.1 mM Na3VO4, 2 mM DTT, 1% DMSO. The reaction procedure include the following steps: (1) prepare indicated substrate in freshly prepared base reaction buffer, (2) deliver any required cofactors to the substrate solution above, (3) deliver indicated kinase into the substrate solution and gently mix, (4) deliver compounds in DMSO into the kinase reaction mixture by Acoustic technology (Echo550; nanoliter range), incubate for 20 minutes at room temperature, (5) deliver ^33P-ATP (specific activity 10 μCi/μL) into the reaction mixture to initiate the reaction, (6) incubate kinase reaction for 2 hours at room temperature, (7) reactions are spotted onto P81 ion exchange paper, (8) detect kinase activity by filter-binding method.

[2] = biological target: PI3K α (Homo sapiens (Human), UniProt P42336); test: Radioisotope filter binding assay; assay type: biochemical; details: read-out: IC50 Activity Levels Against Various PI3K and mTor Kinases: PI3K α
Sequence of PI3K α (P42336 whole entry): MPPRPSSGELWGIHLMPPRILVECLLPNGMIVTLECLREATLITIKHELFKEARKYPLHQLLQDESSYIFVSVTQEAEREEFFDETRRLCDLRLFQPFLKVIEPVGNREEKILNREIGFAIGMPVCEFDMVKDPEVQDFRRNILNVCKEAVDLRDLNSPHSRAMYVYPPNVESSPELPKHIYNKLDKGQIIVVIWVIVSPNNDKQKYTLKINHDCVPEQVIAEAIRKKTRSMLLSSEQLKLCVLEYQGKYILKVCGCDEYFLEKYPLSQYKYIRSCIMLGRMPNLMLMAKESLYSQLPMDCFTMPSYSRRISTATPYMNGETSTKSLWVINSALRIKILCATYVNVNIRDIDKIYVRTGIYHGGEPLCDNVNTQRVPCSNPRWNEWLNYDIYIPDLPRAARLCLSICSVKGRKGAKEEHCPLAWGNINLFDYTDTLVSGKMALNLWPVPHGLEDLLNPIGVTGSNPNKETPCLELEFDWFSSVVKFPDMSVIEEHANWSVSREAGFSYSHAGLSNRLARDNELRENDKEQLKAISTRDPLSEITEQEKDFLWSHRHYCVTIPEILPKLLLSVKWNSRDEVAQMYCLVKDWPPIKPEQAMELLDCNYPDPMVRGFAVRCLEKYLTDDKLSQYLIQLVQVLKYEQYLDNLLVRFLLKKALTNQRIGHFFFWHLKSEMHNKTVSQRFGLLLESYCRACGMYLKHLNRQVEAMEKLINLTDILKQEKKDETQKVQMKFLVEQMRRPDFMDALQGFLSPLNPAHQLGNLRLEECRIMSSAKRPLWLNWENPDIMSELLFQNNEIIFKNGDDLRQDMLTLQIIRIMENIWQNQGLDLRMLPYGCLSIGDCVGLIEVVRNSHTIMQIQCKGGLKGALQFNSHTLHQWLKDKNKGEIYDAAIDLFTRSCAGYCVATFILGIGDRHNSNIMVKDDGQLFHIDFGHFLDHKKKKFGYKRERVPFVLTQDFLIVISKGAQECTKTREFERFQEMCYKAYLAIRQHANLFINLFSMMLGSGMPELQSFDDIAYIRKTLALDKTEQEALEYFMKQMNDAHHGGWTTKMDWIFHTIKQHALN
Sequence of PI3K α (P27986 whole entry partner): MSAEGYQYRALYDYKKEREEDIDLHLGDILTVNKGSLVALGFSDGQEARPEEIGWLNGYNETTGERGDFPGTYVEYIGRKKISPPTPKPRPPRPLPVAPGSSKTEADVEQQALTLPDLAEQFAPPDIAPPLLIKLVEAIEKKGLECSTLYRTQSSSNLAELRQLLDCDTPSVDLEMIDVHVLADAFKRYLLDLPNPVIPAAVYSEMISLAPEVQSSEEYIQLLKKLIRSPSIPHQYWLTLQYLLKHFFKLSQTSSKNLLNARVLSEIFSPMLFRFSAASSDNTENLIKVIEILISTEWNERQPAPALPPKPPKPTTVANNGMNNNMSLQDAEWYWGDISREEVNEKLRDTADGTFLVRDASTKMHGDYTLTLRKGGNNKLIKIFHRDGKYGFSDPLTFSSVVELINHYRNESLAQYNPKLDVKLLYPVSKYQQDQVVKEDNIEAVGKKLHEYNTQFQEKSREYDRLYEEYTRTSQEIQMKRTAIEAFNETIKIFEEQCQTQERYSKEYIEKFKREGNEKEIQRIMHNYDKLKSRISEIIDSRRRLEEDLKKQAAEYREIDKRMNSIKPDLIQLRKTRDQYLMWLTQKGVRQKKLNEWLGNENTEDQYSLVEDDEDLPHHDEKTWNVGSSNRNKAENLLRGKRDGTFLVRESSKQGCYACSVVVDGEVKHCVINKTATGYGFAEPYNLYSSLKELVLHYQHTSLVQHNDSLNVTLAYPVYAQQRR
Protocol: as §1, §2, §3

[3] = biological target: PI3K β (Homo sapiens (Human), UniProt P42338); test: Radioisotope filter binding assay; assay type: biochemical; details: read-out: IC50 Activity Levels Against Various PI3K and mTor Kinases: PI3K β
Sequence of PI3K β (P42338 whole entry): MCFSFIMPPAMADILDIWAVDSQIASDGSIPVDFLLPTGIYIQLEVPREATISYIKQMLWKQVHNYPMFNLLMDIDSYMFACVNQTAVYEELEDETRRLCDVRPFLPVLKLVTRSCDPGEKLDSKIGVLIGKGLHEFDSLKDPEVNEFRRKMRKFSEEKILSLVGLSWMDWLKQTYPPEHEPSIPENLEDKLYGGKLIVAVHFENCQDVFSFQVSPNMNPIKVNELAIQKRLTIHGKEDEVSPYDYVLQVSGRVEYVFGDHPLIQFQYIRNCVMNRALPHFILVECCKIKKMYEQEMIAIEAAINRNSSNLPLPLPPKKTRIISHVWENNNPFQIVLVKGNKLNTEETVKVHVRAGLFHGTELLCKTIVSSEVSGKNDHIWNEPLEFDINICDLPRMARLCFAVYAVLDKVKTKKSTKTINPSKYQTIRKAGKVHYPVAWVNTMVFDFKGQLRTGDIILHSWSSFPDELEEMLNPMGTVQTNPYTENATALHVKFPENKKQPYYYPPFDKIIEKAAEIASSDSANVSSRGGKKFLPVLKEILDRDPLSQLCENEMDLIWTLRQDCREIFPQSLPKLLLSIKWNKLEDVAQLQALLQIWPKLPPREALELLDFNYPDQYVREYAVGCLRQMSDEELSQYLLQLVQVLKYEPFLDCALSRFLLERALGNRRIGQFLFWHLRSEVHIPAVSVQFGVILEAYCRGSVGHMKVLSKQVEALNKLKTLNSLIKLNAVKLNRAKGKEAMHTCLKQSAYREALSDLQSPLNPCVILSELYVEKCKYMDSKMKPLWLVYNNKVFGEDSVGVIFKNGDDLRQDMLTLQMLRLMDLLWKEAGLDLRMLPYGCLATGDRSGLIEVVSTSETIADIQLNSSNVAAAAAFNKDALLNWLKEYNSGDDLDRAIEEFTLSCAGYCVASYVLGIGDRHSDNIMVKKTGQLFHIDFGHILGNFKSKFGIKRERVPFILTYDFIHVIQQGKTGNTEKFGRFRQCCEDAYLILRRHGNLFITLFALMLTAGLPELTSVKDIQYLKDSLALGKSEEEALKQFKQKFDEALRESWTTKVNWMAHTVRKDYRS
Sequence of PI3K β (P27986 whole entry partner): as the sequence (P27986 whole entry partner) above
Protocol: as §1, §2, §3

[4] = biological target: mTor/FRAP1 (Homo sapiens (Human), UniProt P42345); test: Radioisotope filter binding assay; assay type: biochemical; details: read-out: IC50 Activity Levels Against Various PI3K and mTor Kinases: mTor/FRAP1
Protocol: as §1, §2, §3

[5] = biological target: SRC (Homo sapiens (Human), UniProt P12931); test: Rabbit reticulocyte lysate assay (KinaseSeeker competition binding); details: at 1 μM, read-out: % Inhibition Against SRC Family Kinases: SRC
Protocol: (§4) 1. Rabbit Reticulocyte Lysate Assay Design:
(§5) KinaseSeeker is a homogeneous competition binding assay where the displacement of an active site dependent probe by an inhibitor is measured by a change in luminescence signal. Luminescence readout translates into a highly sensitive and robust assay with low background and minimal interference from test compounds.
(§6) 10 mM stock solutions of test compounds were serially diluted in DMSO to make assay stocks. Prior to initiating IC50 determinations, the test compounds were evaluated for false positive against split-luciferase.
(§7) Each test compound was screened in duplicate against target kinase at 7 different concentrations. For kinase assays, Cfluc-kinase was translated along with Fos-Nfluc using a cell-free system (rabbit reticulocyte lysate) at 30° C. for 90 min. 24 uL aliquot of this lysate containing either 1 uL of DMSO (for no-inhibitor control) or compound solution in DMSO was incubated for 30 minutes at room temperature followed by 1 hour in presence of a kinase specific probe. 80 uL of luciferin assay reagent was added to each solution and luminescence was immediately measured on a luminometer.
(§8) The % Inhibition and % Activity Remaining was calculated using the following equation: % Inhibition=[(ALUControl−ALUSample)/ALUControl]×100 % Activity Remaining=100−% Inhibition
(§9) The % Activity was plotted against compound concentration and the IC50 was determined for each compound using a 7-point curve (Jester, B. W.; et. al. J. Am. Chem. Soc. 2010, 132, 11727-11735. Jester, B. W., et. al. J. Med. Chem. 2012, 55, 1526-1537). Biological activity of representative compounds of the disclosure are described in Table 5.

[6] = biological target: T1, FYN (Homo sapiens (Human), UniProt P06241); test: as above; details: read-out: % Inhibition Against SRC Family Kinases: FYN
T1 sequence (P06241 whole entry): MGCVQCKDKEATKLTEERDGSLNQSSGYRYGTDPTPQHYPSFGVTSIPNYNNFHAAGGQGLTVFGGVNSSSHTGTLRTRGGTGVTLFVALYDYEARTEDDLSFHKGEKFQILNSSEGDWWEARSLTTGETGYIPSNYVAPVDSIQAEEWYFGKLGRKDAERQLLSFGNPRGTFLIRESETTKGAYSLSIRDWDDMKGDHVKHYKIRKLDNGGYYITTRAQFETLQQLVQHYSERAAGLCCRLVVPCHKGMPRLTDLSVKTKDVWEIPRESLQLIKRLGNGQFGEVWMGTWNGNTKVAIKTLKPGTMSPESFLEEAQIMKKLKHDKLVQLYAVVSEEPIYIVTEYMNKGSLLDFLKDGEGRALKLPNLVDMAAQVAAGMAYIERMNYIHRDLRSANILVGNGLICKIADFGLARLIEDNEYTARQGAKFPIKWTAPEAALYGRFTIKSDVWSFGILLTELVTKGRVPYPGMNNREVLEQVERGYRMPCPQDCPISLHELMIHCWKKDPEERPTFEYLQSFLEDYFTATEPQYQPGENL
Protocol: as §4, §5, §6, §7, §8, §9

[7] = biological target: LYN (Homo sapiens (Human), UniProt P07948); test: as above; details: read-out: % Inhibition Against SRC Family Kinases: LYN
Protocol: as §4, §5, §6, §7, §8, §9

[8] = biological target: YES1 (Homo sapiens (Human), UniProt P07947); test: as above; details: at 1 μM, read-out: % Inhibition Against SRC Family Kinases: YES1
Protocol: as §4, §5, §6, §7, §8, §9

[9] = biological target: CSK (Homo sapiens (Human), UniProt P41240); test: as above; details: read-out: % Inhibition Against SRC Family Kinases: CSK
Protocol: as §4, §5, §6, §7, §8, §9

[10] = biological target: FGR (Homo sapiens (Human), UniProt P09769); test: as above; details: at 1 μM, read-out: % Inhibition Against SRC Family Kinases: FGR
Protocol: as §4, §5, §6, §7, §8, §9

[11] = biological target: HCK (Homo sapiens (Human), UniProt P08631); test: as above; details: at 1 μM, read-out: % Inhibition Against SRC Family Kinases: HCK
Protocol: as §4, §5, §6, §7, §8, §9

[12] = biological target: MEK5 (Homo sapiens (Human), UniProt Q13163); test: KINOMEscan competition binding assay (Kd); details: Table 9, read-out: Kd Values Against Representative MEK5 Kinase: MEK5
Sequence of MEK5 (Q13163 whole entry): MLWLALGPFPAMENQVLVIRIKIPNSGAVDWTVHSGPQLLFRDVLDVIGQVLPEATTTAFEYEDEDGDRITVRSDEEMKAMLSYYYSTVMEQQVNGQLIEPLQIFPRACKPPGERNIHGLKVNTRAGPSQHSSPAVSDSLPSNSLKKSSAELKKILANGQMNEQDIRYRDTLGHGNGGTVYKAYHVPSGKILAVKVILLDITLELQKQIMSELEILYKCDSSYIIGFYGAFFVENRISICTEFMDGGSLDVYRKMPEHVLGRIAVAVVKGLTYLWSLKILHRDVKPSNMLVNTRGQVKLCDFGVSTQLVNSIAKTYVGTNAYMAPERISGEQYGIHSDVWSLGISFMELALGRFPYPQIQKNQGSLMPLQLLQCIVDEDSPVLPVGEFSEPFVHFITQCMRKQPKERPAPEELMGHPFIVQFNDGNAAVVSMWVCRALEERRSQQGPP
Protocol: (§10) KINOMEscan™ is based on a competition binding assay that quantitatively measures the ability of a test compound of the invention to compete with an immobilized, active-site directed ligand. The Kinase assay is performed by combining three components: DNA-tagged kinase; immobilized ligand; and a test compound. The ability of the test compound to compete with the immobilized ligand is measured via quantitative PCR of the DNA tag.
(§11) For most assays, kinase-tagged T7 phage strains were prepared in an E. coli host derived from the BL21 strain. E. coli were grown to log-phase and infected with T7 phage and incubated with shaking at 32° C. until lysis. The lysates were centrifuged and filtered to remove cell debris. The remaining kinases were produced in HEK-293 cells and subsequently tagged with DNA for qPCR detection. Streptavidin-coated magnetic beads were treated with biotinylated small molecule ligands for 30 minutes at room temperature to generate affinity resins for kinase assays. The liganded beads were blocked with excess biotin and washed with blocking buffer (SeaBlock (Pierce), 1% BSA, 0.05% Tween 20, 1 mM DTT) to remove unbound ligand and to reduce nonspecific binding. […] All reactions were performed in polystyrene 96-well plates in a final volume of 0.135 ml. […] The kinase concentration in the eluates was measured by qPCR.

[13] = biological target: BTK (Homo sapiens (Human), UniProt Q06187); test: KINOMEscan competition binding assay (Kd); details: read-out: Kd Values Against Representative TEC Family Kinases: BTK
Sequence of BTK (Q06187 whole entry): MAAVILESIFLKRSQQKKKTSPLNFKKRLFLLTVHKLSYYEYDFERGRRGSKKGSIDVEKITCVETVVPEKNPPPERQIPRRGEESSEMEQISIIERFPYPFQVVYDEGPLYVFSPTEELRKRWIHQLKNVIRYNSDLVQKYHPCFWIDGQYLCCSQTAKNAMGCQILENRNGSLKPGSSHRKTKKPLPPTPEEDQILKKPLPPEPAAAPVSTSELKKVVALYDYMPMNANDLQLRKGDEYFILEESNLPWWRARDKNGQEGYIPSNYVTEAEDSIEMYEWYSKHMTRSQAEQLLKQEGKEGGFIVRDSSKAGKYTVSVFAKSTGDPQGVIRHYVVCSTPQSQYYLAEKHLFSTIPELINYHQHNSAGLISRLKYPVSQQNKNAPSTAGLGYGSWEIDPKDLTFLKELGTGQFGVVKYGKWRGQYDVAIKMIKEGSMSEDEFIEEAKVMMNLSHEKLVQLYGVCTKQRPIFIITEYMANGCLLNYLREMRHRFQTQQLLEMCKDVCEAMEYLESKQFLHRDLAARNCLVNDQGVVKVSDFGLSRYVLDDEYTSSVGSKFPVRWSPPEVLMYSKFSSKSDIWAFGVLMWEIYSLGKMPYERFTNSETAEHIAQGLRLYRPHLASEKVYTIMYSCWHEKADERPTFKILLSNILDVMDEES
Protocol: as §10, §11

[14] = biological target: BRAF (Homo sapiens (Human), UniProt P15056); test: KINOMEscan competition binding assay (Kd); details: read-out: Kd Values Against MAPK Pathway Kinases: BRAF
Protocol: as §10, §11

[15] = biological target: Bruton Tyrosine Kinase (BTK) (Homo sapiens (Human), UniProt Q06187); test: Rabbit reticulocyte lysate assay (KinaseSeeker competition binding); details: read-out: IC50 Activity Levels Against Bruton Tyrosine Kinase: BTK
Sequence of Bruton Tyrosine Kinase (BTK) (Q06187 whole entry): as above
Protocol: as §4, §5, §6, §7, §8, §9

[16] = biological target: T1, FYN; test: Radioisotope filter binding assay; assay type: biochemical; details: read-out: IC50 Activity Levels Against SRC Family Kinases: FYN
Protocol: as §1, §2, §3

[17] = biological target: mTOR (Homo sapiens (Human), UniProt P42345); test: KINOMEscan competition binding assay (Kd); details: read-out: Kd Values Against mTOR Kinase: mTOR
Protocol: as §10, §11

IC50 [1]: 1000 to 10000 nM
IC50 [2]: 100 to 999 nM
IC50 [3]: 1000 to 10000 nM
IC50 [4]: 5 to 99 nM
SMILES: Nc1nc2cc(-c3nn(C[C@@H]4SSC[C@H]4OC(=O)c4ccccc4)c4ncnc(N)c34)ccc2o1 (relative stereo) [Example 55, trans 3-((4-Amino-3-(2-aminobenzo[d]oxazol-5-yl)-1H-pyrazolo[3,4-d]pyrimidin-1-yl)methyl)-1,2-dithiolan-4-yl benzoate]

IC50 [4]: 1000 to 10000 nM
SMILES: Nc1ncnc2c1c(C#Cc1ccccc1)nn2C[C@@H]1SSC[C@H]1O (relative stereo) [Example 52, trans 3-(4-Amino-3-(phenylethynyl)-1H-pyrazolo[3,4-d]pyrimidin-1-yl)methyl-1,2-dithiolan-4-ol]

inhibition at 1 µM [5]: 49%
inhibition at 1 µM [6]: 33%
inhibition at 1 µM [7]: 33%
inhibition at 1 µM [8]: 90%
inhibition at 1 µM [9]: 50%
inhibition at 1 µM [10]: 84%
inhibition at 1 µM [11]: 73%
SMILES: Nc1ncnc2c1c(-c1ccc(Oc3ccccc3)cc1)nn2C[C@@H]1SSC[C@H]1O [Example 43 A., (3S,4R)-3-((4-Amino-3-(4-phenoxyphenyl)-1H-pyrazolo[3,4-d]pyrimidin-1-yl)methyl)-1,2-dithiolan-4-ol]

IC50 [4]: 1000 to 10000 nM
SMILES: Nc1ncnc2c1c(C#Cc1ccccc1)nn2CC1SSCC1OC(=O)c1ccccc1 (stereo not drawn) [Example 51, trans 3-((4-Amino-3-(phenylethynyl)-1H-pyrazolo[3,4-d]pyrimidin-1-yl)methyl-1,2-dithiolan-4-yl benzoate]

Kd [12]: < 5 nM
SMILES: Nc1ncnc2c1c(-c1ccc(Cl)cc1)nn2C[C@@H]1SSC[C@H]1O (relative stereo) [Example 30, trans 3-((4-Amino-3-(4-chlorophenyl)-1H-pyrazolo[3,4-d]pyrimidin-1-yl)methyl)-1,2-dithiolan-4-ol]

Kd [12]: < 5 nM
Kd [13]: 5 to 99 nM
SMILES: CO[C@H]1CSS[C@H]1Cn1nc(-c2ccc(Oc3ccccc3)cc2)c2c(N)ncnc21 (relative stereo) [Example 38, cis 1-((4-Methoxy-1,2-dithiolan-3-yl)methyl)-3-(4-phenoxyphenyl)-1H-pyrazolo[3,4-d]pyrimidin-4-amine]

Kd [14]: 1000 to 10000 nM
Kd [13]: 5 to 99 nM
IC50 [15]: 100 to 999 nM
SMILES: Nc1ncnc2c1c(-c1ccc(Oc3ccccc3)cc1)nn2C[C@@H]1SSC[C@H]1O (relative stereo) [Example 42, trans 3-((4-Amino-3-(4-phenoxyphenyl)-1H-pyrazolo[3,4-d]pyrimidin-1-yl)methyl)-1,2-dithiolan-4-ol]

IC50 [16]: 5 to 99 nM
SMILES: Nc1ncnc2c1c(-c1ccc(Oc3ccccc3F)cc1)nn2CC1SSCC1OC(=O)c1ccccc1 (stereo not drawn) [Example 62, trans 3-((4-Amino-3-(4-(2-fluorophenoxyphenyl)-1H-pyrazolo[3,4-d]pyrimidin-1-yl)methyl)-1,2-dithiolan-4-yl benzoate]

Kd [12]: 5 to 99 nM
SMILES: Nc1ncnc2c1c(-c1ccccc1)nn2C[C@@H]1SSC[C@H]1O (relative stereo) [Example 28, trans 3-((4-Amino-3-phenyl-1H-pyrazolo[3,4-d]pyrimidin-1-yl)methyl)-1,2-dithiolan-4-ol]

Kd [12]: 5 to 99 nM
Kd [13]: 1000 to 10000 nM
SMILES: Nc1ncnc2c1c(-c1ccc(Oc3ccccc3)cc1)nn2C[C@@H]1SSC[C@H]1OCc1ccccc1 (relative stereo) [Example 39, trans 1-((4-(Benzyloxy)-1,2-dithiolan-3-yl)methyl)-3-(4-phenoxyphenyl)-1H-pyrazolo[3,4-d]pyrimidin-4-amine]

Kd [17]: 100 to 999 nM
Kd [12]: 5 to 99 nM
SMILES: COc1ccc(-c2nn(CC3SSCC3O)c3ncnc(N)c23)cc1 (stereo not shown) [36 B.]

Kd [17]: 1000 to 10000 nM
Kd [12]: < 5 nM
Kd [13]: 5 to 99 nM
IC50 [16]: 5 to 99 nM
SMILES: CO[C@@H]1CSS[C@H]1Cn1nc(-c2ccc(Oc3ccccc3)cc2)c2c(N)ncnc21 (relative stereo) [Example 37, trans 1-((4-Methoxy-1,2-dithiolan-3-yl)methyl)-3-(4-phenoxyphenyl)-1H-pyrazolo[3,4-d]pyrimidin-4-amine]

Kd [12]: 5 to 99 nM
Kd [13]: 100 to 999 nM
IC50 [16]: 1000 to 10000 nM
SMILES: Nc1ncnc2c1c(-c1ccc(Oc3ccccc3)cc1)nn2C[C@@H]1SSC[C@@H]1OCc1ccccc1 (relative stereo) [Example 40, cis 1-((4-(Benzyloxy)-1,2-dithiolan-3-yl)methyl)-3-(4-phenoxyphenyl)-1H-pyrazolo[3,4-d]pyrimidin-4-amine]

IC50 [16]: 5 to 99 nM
SMILES: Nc1ncnc2c1c(-c1ccc(Oc3ccccc3F)cc1)nn2CC1SSCC1O (stereo not drawn) [Example 63, trans 3-((4-Amino-3-(4-(2-fluorophenoxyphenyl)-1H-pyrazolo[3,4-d]pyrimidin-1-yl)methyl)-1,2-dithiolan-4-ol]

Kd [13]: 5 to 99 nM
SMILES: Nc1ncnc2c1c(-c1ccc(Oc3ccccc3)cc1)nn2C[C@@H]1SSC[C@@H]1O (relative stereo) [Example 45, cis 3-((4-Amino-3-(4-phenoxyphenyl)-1H-pyrazolo[3,4-d]pyrimidin-1-yl)methyl)-1,2-dithiolan-4-ol]

— patent publication US10844038B2, “1,2-dithiolane compounds useful in neuroprotection, autoimmune and cancer diseases and conditions” (SABILA BIOSCIENCES LLC, priority 2016, dated 2020)
